According to patent US20070128217A1 (priority 2003, published 2007):

Legend:
[1] = tested on: control sera (pooled serum of ten healthy LUMC hospital workers; commercial negative donor pooled serum from the Dutch bloodbank); type: binding, human; design: Binding of Control serum LUMC to linear peptides / Binding of Control serum Blood-bank to linear peptides / Binding of Control serum LUMC to looped peptides / Binding of Control Serum Blood-Bank to Looped peptides / Binding of Control serum LUMC to linear peptides of the protein M of SARS-CoV Urbani / Binding of Control serum Blood-bank to linear peptides of the protein M of SARS-CoV Urbani / Binding of Control serum LUMC to looped peptides of the protein M of SARS-CoV Urbani / Binding of Control Serum Blood-Bank to Looped peptides of the protein M of SARS-CoV Urbani: unit not given here
[2] = tested on: antibodies in sera from SARS patients (sera 1a, 1b, 2, 6, 37, 62, London, SARS-yellow, SARS-green); type: binding, human; design: Binding of serum 6 to linear peptides of protein X1 of SARS-CoV Urbani / Binding of serum 37 to linear peptides of protein X1 of SARS-CoV Urbani / Binding of serum 6 to looped/cyclic peptide (PEPSCAN-ELISA) / Binding of serum 37 to looped/cyclic peptide (PEPSCAN-ELISA) / Binding of serum 37 to looped/cyclic peptides of protein X1 of SARS-CoV Urbani / Binding of serum 6 to linear peptides of protein X2 / Binding of serum 37 to linear peptides of protein X2 / Binding of serum 37 to looped/cyclic peptides of protein X2 of SARS-CoV Urbani / Binding of serum 6 to linear peptides of protein M of SARS-CoV Urbani / Binding of serum 37 to linear peptides of protein M of SARS-CoV Urbani / Binding of serum 6 to looped/cyclic peptides of protein M of SARS-CoV Urbani / Binding of serum 37 to looped/cyclic peptides of protein M of SARS-CoV Urbani / Binding of serum 6 to linear peptides of protein X3 of SARS-CoV Urbani / Binding of serum 37 to linear peptides of protein X3 of SARS-CoV Urbani / Binding of serum 37 to looped/cyclic peptides of protein X3 of SARS-CoV Urbani / Binding of serum 6 to linear peptides of protein X4 of SARS-CoV Urbani / Binding of serum 37 to linear peptides of protein X4 of SARS-CoV Urbani / Binding of serum 37 to looped/cyclic peptides of protein X4 of SARS-CoV Urbani / Binding of serum 6 to linear peptides of protein X5 of SARS-CoV Urbani / Binding of serum 37 to linear peptides of protein X5 of SARS-CoV Urbani / Binding of serum 37 to looped/cyclic peptides of protein X5 of SARS-CoV Urbani / Binding of serum 6 to linear peptides of protein N of SARS-CoV Urbani / Binding of serum 37 to linear peptides of protein N of SARS-CoV Urbani / Binding of serum 6 to linear peptide (PEPSCAN-ELISA) / Binding of serum 1a to looped/cyclic peptides of protein N of SARS-CoV Urbani / Binding of serum 1b to looped/cyclic peptides of protein N of SARS-CoV Urbani / Binding of serum 2 to looped/cyclic peptides of protein N of SARS-CoV Urbani / Binding of serum 6 to looped/cyclic peptides of protein N of SARS-CoV Urbani / Binding of serum 37 to looped/cyclic peptides of protein N of SARS-CoV Urbani / Binding of serum 62 to looped/cyclic peptides of protein N of SARS-CoV Urbani / Binding of serum London to looped/cyclic peptides of protein N of SARS-CoV Urbani / Binding of serum SARS-green to looped/cyclic peptides of protein N of SARS-CoV Urbani: unit not given here
[3] = tested on: recombinant human anti-SARS-CoV antibody 03-018; type: binding; design: Binding of antibody 03-018 to linear peptides of the N protein of SARS-CoV Urbani / Binding of antibody 03-018 to looped/cyclic peptides of the N protein of SARS-CoV Urbani: unit not given here
[4] = tested on: rabbit serum obtained by immunizing a rabbit with the SARS-CoV strain Frankfurt 1; type: binding; design: Binding of a rabbit serum to linear peptides / Binding of a rabbit serum to looped peptides / Rabbit serum linear peptides / Rabbit serum looped peptides / Binding of a rabbit serum to linear peptides of protein N of SARS-CoV Urbani (Rabbit serum linear peptides) / Binding of a rabbit serum to looped/cyclic peptides of protein N of SARS-CoV Urbani (Rabbit serum looped peptides): unit not given here

Sequence | Binding of Control Serum Blood-Bank to Looped peptides [1] | Binding of Control serum Blood-bank to linear peptides [1] | Binding of Control serum LUMC to linear peptides [1] | Binding of Control serum LUMC to looped peptides [1] | Binding of serum 1a to linear peptide (PEPSCAN-ELISA) [2] | Binding of serum 1a to looped/cyclic peptides of protein N of SARS-CoV Urbani [2] | Binding of serum 1b to linear peptide (PEPSCAN-ELISA) [2] | Binding of serum 1b to looped/cyclic peptides of protein N of SARS-CoV Urbani [2] | Binding of serum 2 to linear peptide (PEPSCAN-ELISA) [2] | Binding of serum 2 to looped/cyclic peptides of protein N of SARS-CoV Urbani [2] | Binding of serum 6 to linear peptide (PEPSCAN-ELISA) [2] | Binding of serum 6 to looped/cyclic peptides of protein N of SARS-CoV Urbani [2] | Binding of serum 37 to linear peptide (PEPSCAN-ELISA) [2] | Binding of serum 37 to looped/cyclic peptides of protein N of SARS-CoV Urbani [2] | Binding of serum 62 to linear peptide (PEPSCAN-ELISA) [2] | Binding of serum 62 to looped/cyclic peptides of protein N of SARS-CoV Urbani [2] | Binding of serum London to linear peptide (PEPSCAN-ELISA) [2] | Binding of serum London to looped/cyclic peptides of protein N of SARS-CoV Urbani [2] | Binding of serum SARS-green to linear peptide (PEPSCAN-ELISA) [2] | Binding of serum SARS-green to looped/cyclic peptides of protein N of SARS-CoV Urbani [2] | further results
GNFGDQDLIRQGTDY | 0.9 | 0.7 | 0.6 | 0.9 | 0.3 | 0.5 | 0.2 | 0.3 | 0.2 | 0.5 | 0.2 | 0.3 | 0.8 | 0.8 | 0.7 | 0.8 | 0.6 | 0.5 | 0.5 | 0.7 | Binding of serum SARS-yellow to linear peptide (PEPSCAN-ELISA) [2]: 0.8; Binding of serum SARS-yellow to looped/cyclic peptides of protein N of SARS-CoV Urbani [2]: 0.6; Binding of antibody 03-018 to linear peptides of the N protein of SARS-CoV Urbani [3]: 0.1; Binding of antibody 03-018 to looped/cyclic peptides of the N protein of SARS-CoV Urbani [3]: 0.2; Binding of a rabbit serum to linear peptides of protein N of SARS-CoV Urbani (Rabbit serum linear peptides) [4]: 0.2; Binding of a rabbit serum to looped/cyclic peptides of protein N of SARS-CoV Urbani (Rabbit serum looped peptides) [4]: 0.5
GNSPARMASGGGETA | 0.5 | 0.8 | 0.7 | 0.4 | 0.3 | 0.2 | 0.1 | 0.1 | 0.2 | 0.3 | 0.2 | 0.1 | 0.6 | 0.2 | 0.6 | 0.2 | 0.6 | 0.3 | 0.2 | 0.3 | Binding of serum SARS-yellow to linear peptide (PEPSCAN-ELISA) [2]: 0.5; Binding of serum SARS-yellow to looped/cyclic peptides of protein N of SARS-CoV Urbani [2]: 0.0; Binding of antibody 03-018 to linear peptides of the N protein of SARS-CoV Urbani [3]: 0.2; Binding of antibody 03-018 to looped/cyclic peptides of the N protein of SARS-CoV Urbani [3]: 0.2; Binding of a rabbit serum to linear peptides of protein N of SARS-CoV Urbani (Rabbit serum linear peptides) [4]: 0.1; Binding of a rabbit serum to looped/cyclic peptides of protein N of SARS-CoV Urbani (Rabbit serum looped peptides) [4]: 0.0
